Test results from ChEMBL document CHEMBL1201862, “PubChem BioAssay data set” (2004).
Active and inactive are the calls of the source.

Key:
[1] = target: Peroxisome proliferator-activated receptor gamma/Nuclear receptor coactivator 1 (Homo sapiens, UniProt P37231); assay type: functional;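 note: agonist potency as compounds enhance coactivator SRC-1 recruitment to PPARgamma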
[2] = target: Peroxisome proliferator-activated receptor gamma/Nuclear receptor coactivator 3 (Homo sapiens, UniProt P37231); assay type: functional;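 note: agonist potency for raising coactivator recruitment to the receptor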
[3] = target: Peroxisome proliferator-activated receptor gamma/Nuclear receptor coactivator 2 (Homo sapiens, UniProt P37231); assay type: functional;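 note: agonist potency for raising coactivator recruitment to the receptor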
Cytochrome P450 2C9 = Cytochrome P450 2C9 (Homo sapiens, UniProt P11712)
[4] = target: Eukaryotic translation initiation factor 4E (Mus musculus, UniProt P63073); test: eIF4E–eIF4G protein interaction inhibitors, dose response, biochemical, TR-FRET (AID 855); assay type: functional;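 note: potency for disrupting eIF4E binding to eIF4GI seen as loss of FRET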
Cytochrome P450 2C19 = Cytochrome P450 2C19 (Homo sapiens, UniProt P33261); test: Cytochrome panel assay with activity outcomes. Panel member name: p450-cyp2c19 Compounds with AC50 equal or less than 10 uM are considered active; assay type: functional; conditions: read-out: AC50
Caspase-6 = target: T1, Caspase-6 (Homo sapiens, UniProt P55212); test: human caspase-6 inhibitors, dose response, biochemical, VEID-R110 fluorescence, cherry-pick (AID 720632)
T1 sequence (P55212 whole entry): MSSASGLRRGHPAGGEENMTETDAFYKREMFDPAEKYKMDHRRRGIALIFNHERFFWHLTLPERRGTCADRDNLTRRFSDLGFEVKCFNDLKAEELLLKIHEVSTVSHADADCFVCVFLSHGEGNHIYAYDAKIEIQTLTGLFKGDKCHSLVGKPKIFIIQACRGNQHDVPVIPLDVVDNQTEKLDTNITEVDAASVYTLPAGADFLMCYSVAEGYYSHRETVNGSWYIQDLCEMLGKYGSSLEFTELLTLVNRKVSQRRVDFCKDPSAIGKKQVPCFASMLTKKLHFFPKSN

[5] = target: T2, Mannose-6-phosphate isomerase (Homo sapiens, UniProt P34949); test: human PMI inhibitors, high substrate, primary screen, biochemical, fluorescence intensity, high mannose 6-phosphate (AID 1220)
T2 sequence (P34949 whole entry): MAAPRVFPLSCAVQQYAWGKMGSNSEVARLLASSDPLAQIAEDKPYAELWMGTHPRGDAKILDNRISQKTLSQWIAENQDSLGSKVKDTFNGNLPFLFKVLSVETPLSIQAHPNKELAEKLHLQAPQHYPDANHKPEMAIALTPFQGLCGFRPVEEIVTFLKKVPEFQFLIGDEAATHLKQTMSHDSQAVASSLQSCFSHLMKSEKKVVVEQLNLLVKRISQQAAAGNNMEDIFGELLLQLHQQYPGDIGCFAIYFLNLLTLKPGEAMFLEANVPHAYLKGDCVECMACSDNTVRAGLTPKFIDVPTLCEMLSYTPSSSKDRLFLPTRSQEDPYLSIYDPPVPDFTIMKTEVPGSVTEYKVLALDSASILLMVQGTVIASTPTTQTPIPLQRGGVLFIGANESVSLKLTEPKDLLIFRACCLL

BJ [6] = test: cytotoxicity toward BJ-TERT fibroblasts, dose response, cell-based, RAS-independent, luminescence (AID 1933); assay type: functional; conditions: Homo sapiens
BJ [7] = test: cytotoxicity toward BJ-TERT-LT-ST fibroblasts, dose response, cell-based, RAS-independent, luminescence (AID 1935); assay type: functional; conditions: Homo sapiens;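 note: BJ fibroblasts immortalized with TERT plus LT and ST oncogenes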
[8] = cytotoxicity toward DRD oncogenic fibroblasts, dose response, cell-based, non-viral oncogenic, luminescence (AID 1934); assay type: functional; conditions: Homo sapiens
BJ [9] = test: cells; assay type: functional, cell-based; conditions: Homo sapiens
H9c2 = test: cells; assay type: functional, cell-based; conditions: Rattus norvegicus, H9c2, Myocardium;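 note: confirmatory concentration-response retest of ultra-high-throughput screening hits for modulation of myocardial damage; cell death induced by hydrogen peroxide oxidative stress; compound pretreatment for 60 min then peroxide exposure for 2 h; potency is for protecting the cells against peroxide damage rather than for killing them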
[10] = Shn3 3'UTR reporter inhibitors, dose response, cell-based, Clone20 osteoblasts, firefly luciferase, cherry-picked (AID 624132); assay type: functional;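 note: firefly luciferase luminescence from reporter carrying the Shn3 3'UTR in osteoblasts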
[11] = HepG2 cell cytotoxicity, dose response, cytotoxicity control for Shn3 inhibitor project, CellTiter-Glo, cherry-picked (AID 624134); assay type: functional, cell-based
[12] = target: T3, Kappa-type opioid receptor (Homo sapiens, UniProt P41145); assay type: functional
[13] = CEM21 lymphoblast cell cytotoxicity, dose response, cytotoxicity control for viral fusion inhibitor project, CellTiter-Glo luminescence, cherry-picked (AID 652042); assay type: functional, cell-based;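 note: potency for signal decrease meaning cytotoxicity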
[14] = control 3'UTR Renilla luciferase suppression, dose response, counter-screen for Shn3 inhibitor project, cell-based, Clone20-Shn3RL, cherry-picked (AID 624133); assay type: functional
Beta-galactosidase = Beta-galactosidase (Escherichia coli, UniProt Q8VNN2); assay type: functional
[15] = target: T3, Kappa-type opioid receptor; assay type: functional; remark: listed apart in the source
[16] = inhibitors of clade B AD8 Env fusion, dose response, cell-based, cherry-pick (AID 652062); assay type: functional;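 note: luciferase signal from cell-cell fusion driven by HIV-1 clade B AD8 Env; potency is for inhibitors of fusion seen as a drop in luminescence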
[17] = Luminescence Cell-Based Dose Confirmation HTS to Identify Inhibitors of Platelet Dense Granule Release. [Related pubchem assays: 1663 (Primary HTS), 1678 (Summary of Project)]; assay type: functional
[18] = target: Luciferin 4-monooxygenase (Photinus pyralis, UniProt P08659); test: firefly luciferase enzyme inhibitors, dose response, biochemical, luminescence (AID 1891)
[19] = target: T4, Short transient receptor potential channel 4 (Mus musculus, UniProt Q9QUQ5); test: mouse TRPC4 channel inhibitors, dose response, cell-based, HEK293 TRPC4/mu-opioid, Fluo-4 calcium (AID 434942); assay type: functional;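 note: potency of inhibitors blocking the TRPC4 calcium response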
T4 sequence (Q9QUQ5 whole entry): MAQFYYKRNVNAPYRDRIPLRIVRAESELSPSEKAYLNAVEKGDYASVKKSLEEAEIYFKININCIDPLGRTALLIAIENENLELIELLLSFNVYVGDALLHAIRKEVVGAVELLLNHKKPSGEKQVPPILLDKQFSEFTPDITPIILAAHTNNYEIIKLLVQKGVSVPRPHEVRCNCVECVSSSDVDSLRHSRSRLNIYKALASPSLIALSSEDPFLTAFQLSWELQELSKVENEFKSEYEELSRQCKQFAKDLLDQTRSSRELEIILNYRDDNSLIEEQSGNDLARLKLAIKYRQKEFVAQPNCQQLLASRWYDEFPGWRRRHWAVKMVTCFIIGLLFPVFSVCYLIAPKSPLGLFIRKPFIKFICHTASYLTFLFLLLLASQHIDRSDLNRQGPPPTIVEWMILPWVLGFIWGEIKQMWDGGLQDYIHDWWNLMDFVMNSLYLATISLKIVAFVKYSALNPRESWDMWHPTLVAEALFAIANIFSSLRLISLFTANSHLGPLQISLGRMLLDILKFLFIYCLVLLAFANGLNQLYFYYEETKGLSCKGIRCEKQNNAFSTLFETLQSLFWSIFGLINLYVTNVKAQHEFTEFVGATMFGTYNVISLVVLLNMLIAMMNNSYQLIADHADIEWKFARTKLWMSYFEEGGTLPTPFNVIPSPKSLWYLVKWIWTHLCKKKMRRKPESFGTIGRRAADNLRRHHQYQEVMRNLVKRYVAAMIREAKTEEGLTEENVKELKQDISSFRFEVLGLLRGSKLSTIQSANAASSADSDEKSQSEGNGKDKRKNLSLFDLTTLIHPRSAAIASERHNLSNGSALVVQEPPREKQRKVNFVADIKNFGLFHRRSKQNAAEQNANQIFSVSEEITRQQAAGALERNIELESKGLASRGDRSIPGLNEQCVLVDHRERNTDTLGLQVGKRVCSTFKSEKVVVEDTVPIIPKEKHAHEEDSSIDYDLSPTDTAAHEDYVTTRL

Eukaryotic translation initiation factor 4E, sequence (P63073 whole entry): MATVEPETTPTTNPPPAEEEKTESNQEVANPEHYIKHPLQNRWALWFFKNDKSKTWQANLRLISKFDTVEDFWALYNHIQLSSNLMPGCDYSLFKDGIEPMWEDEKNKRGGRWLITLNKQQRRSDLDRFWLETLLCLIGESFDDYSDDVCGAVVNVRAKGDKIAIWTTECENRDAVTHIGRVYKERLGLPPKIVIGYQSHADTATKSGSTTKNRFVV
T3 sequence (P41145 whole entry, the tested form may be a part): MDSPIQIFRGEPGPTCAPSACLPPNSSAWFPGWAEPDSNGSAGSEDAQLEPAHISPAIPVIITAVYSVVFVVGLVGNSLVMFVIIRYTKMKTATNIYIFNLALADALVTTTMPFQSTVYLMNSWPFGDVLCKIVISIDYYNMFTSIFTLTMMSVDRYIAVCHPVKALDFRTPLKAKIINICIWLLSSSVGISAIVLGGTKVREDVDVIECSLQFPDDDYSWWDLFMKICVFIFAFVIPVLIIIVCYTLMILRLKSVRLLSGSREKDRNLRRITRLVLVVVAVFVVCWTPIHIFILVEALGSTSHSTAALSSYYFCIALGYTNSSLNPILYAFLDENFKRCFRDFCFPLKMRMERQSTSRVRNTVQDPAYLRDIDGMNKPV
Peroxisome proliferator-activated receptor gamma/Nuclear receptor coactivator 3, sequence (P37231 whole entry): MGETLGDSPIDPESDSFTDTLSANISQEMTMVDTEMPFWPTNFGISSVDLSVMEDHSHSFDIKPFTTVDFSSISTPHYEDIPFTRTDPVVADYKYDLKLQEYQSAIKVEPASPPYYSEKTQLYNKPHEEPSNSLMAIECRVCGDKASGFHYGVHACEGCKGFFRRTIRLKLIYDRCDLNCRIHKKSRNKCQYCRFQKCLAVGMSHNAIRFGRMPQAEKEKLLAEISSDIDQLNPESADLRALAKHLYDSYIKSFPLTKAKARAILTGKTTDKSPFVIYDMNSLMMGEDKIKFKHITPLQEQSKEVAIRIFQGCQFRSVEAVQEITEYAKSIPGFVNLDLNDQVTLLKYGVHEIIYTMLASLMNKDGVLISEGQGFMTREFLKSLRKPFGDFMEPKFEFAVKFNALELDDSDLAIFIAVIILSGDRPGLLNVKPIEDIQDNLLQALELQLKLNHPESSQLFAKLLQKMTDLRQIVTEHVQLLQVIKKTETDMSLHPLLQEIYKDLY
Peroxisome proliferator-activated receptor gamma/Nuclear receptor coactivator 3, sequence (Q9Y6Q9 whole entry, further chain): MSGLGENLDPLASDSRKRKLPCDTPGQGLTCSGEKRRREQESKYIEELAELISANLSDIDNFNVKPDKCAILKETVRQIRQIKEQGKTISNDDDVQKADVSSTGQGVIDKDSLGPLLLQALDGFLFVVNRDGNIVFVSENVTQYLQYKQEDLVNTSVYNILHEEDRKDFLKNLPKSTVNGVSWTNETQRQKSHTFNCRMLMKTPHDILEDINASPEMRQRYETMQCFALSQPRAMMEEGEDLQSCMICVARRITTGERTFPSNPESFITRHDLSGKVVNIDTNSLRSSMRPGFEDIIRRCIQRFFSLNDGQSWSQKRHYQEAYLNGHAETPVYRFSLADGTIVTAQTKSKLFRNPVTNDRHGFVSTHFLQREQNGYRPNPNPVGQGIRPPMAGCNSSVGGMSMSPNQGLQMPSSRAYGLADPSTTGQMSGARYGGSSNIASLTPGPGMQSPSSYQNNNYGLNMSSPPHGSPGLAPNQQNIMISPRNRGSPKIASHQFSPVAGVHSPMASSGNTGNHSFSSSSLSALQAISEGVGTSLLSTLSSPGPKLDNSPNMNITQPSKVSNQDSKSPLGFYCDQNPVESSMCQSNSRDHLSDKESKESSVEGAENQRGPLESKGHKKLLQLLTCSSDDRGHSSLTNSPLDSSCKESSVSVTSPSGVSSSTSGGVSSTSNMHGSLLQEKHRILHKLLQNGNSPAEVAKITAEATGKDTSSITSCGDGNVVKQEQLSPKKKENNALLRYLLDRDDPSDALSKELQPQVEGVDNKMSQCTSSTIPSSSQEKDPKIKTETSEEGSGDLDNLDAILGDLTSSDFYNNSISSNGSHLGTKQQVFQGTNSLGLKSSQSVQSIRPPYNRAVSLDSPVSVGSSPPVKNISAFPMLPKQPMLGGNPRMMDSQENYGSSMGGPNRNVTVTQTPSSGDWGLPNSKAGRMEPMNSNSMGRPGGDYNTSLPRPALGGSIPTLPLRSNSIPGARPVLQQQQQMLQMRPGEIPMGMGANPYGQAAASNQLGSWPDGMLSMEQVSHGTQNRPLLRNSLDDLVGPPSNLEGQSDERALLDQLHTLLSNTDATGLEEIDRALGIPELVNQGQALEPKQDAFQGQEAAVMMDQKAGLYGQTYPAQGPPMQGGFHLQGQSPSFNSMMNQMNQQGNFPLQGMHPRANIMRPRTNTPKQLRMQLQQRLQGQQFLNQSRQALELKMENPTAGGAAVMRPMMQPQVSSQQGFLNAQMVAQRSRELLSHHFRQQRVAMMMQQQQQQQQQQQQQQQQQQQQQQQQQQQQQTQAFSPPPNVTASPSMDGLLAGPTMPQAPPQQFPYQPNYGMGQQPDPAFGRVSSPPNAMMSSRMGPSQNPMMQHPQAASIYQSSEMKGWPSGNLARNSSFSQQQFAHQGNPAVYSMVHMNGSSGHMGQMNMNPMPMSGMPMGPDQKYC
Peroxisome proliferator-activated receptor gamma/Nuclear receptor coactivator 1, sequence (P37231 whole entry): as the sequence (P37231 whole entry) above
Peroxisome proliferator-activated receptor gamma/Nuclear receptor coactivator 1, sequence (Q15788 whole entry, further chain): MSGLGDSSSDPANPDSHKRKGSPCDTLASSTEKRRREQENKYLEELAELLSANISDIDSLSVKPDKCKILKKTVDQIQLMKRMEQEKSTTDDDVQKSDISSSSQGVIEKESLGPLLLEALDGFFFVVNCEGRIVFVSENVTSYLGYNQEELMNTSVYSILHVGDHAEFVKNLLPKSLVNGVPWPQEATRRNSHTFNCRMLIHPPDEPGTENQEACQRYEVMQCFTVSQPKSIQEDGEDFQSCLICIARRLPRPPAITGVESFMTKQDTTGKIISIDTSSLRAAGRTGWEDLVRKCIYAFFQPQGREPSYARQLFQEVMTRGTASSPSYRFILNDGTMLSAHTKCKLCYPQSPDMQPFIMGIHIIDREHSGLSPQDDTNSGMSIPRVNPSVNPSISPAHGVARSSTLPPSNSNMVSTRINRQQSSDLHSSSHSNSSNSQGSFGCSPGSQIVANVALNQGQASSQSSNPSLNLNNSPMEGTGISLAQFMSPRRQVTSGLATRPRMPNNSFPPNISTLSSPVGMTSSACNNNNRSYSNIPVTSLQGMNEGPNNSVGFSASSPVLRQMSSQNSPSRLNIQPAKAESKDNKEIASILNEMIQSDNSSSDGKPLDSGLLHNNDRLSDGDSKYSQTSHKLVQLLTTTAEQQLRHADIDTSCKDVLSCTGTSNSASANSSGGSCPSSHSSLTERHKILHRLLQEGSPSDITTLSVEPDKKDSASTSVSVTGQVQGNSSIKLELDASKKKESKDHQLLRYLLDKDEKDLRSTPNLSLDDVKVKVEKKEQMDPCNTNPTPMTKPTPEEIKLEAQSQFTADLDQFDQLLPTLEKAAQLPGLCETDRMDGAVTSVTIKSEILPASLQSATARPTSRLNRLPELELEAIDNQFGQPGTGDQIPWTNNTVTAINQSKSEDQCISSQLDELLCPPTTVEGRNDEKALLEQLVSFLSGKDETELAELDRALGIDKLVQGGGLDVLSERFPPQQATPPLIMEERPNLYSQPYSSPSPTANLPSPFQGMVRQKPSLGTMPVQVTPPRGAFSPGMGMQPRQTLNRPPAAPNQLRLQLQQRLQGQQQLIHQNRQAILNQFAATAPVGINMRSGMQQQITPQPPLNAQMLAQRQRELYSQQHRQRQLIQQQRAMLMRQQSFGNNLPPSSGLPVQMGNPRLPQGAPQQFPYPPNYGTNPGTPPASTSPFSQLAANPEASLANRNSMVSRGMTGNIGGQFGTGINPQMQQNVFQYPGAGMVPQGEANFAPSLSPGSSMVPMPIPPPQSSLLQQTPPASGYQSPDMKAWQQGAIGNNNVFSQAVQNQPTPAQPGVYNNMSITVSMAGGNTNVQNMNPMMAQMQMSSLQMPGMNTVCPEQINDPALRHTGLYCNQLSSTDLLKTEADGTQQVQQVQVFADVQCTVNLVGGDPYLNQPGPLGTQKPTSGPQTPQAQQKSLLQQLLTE
Cytochrome P450 2C19, sequence (P33261 whole entry): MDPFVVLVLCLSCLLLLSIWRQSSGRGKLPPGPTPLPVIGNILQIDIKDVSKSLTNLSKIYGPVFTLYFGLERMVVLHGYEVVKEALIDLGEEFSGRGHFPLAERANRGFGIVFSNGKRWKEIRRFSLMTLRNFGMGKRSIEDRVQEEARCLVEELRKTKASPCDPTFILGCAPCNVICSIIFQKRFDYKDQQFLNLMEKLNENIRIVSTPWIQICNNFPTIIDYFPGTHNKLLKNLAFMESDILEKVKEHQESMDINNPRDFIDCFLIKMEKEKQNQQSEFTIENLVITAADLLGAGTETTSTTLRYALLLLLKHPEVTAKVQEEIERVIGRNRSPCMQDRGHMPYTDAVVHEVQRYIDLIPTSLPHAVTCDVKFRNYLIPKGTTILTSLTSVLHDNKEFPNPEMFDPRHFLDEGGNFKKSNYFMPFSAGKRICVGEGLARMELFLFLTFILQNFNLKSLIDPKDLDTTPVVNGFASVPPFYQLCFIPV

In the case of `Clc1cccc2sc(N3CCN(c4ccccc4)CC3)nc12`, the EC50 [1] is reported as > 79.4 µM (not active), the EC50 [2] is reported as > 79.4 µM (not active) and the EC50 [3] is reported as > 79.4 µM (not active).
In the case of `CC(C)CC(=O)N1CCC(N2CCN(c3ccccc3)CC2)CC1`, the AC50 (Cytochrome P450 2C9) is reported as 14.1 µM (inconclusive), the IC50 [4] is reported as > 64 µM (inactive) and the AC50 (Cytochrome P450 2C19) is reported as 15.8 µM (inconclusive).
In the case of `Cc1ccc2cc(N)ccc2n1`, the AC50 (Caspase-6) is reported as 14.2 µM (active) and the IC50 [5] is reported as > 50 µM (not active).
For `O=C(c1cccc([N+](=O)[O-])c1)c1ccccn1`, the EC50 (BJ [6]) was > 150 µM (not active), the EC50 (BJ [7]) was > 150 µM (not active) and the EC50 [8] was > 150 µM (not active). The EC50 (BJ [9]) was > 150 µM (not active).
With `O=C(Cc1sc(-c2ccccc2Cl)nc1-c1ccccc1)Nc1ccccc1` the EC50 [1] was 10 µM (not active), the EC50 [2] was 11.3 µM (not active) and the EC50 [3] was 6.82 µM (active).
With `O=C(NNC(=O)C(c1ccccc1)c1ccccc1)c1ccccn1` the IC50 (H9c2) was > 79 µM (inactive), the AC50 [10] was 2.87 µM (active) and the AC50 [11] was 5.11 µM (active). The IC50 [12] was 17.5 µM (active), the AC50 [13] was 3.53 µM (active) and the AC50 [14] was 2.52 µM (active). For the same compound, the EC50 (Beta-galactosidase) was > 31.5 µM (inactive), the IC50 [15] was greater than 32 µM and the AC50 [16] was 0.585 µM (active).
With `CC1(C)Cc2c(sc3nc(NCCN4CCOCC4)n4ncnc4c23)CO1` the IC50 [4] was > 64 µM (inactive), the EC50 [17] was 10.8 µM (active) and the EC50 [18] was > 112 µM (not active).
With `Cc1ccccc1N(C(=O)c1snc(C(N)=O)c1N)C(C(=O)NC1CCCC1)c1ccco1` (stereo unspecified) the EC50 [19] was 2.99 µM (active).
For `CN(C)/C=C1\Oc2ccc3ccccc3c2C1=O`, the IC50 [5] was > 50 µM (not active).
With `CN(CC(=O)Nc1ccc(N2CCOCC2)cc1)Cc1c(O)ccc2ccccc12` the IC50 [5] was > 50 µM (not active).
For `CC1CCCN(c2c3c(nc4ccccc24)CCCC3)C1` (stereo unspecified), the EC50 [19] was 1.33 µM (active).
